Laboratory results published in patent US20170112789A1, “INTRAVENOUS BACLOFEN AND METHODS OF TREATMENT” (Allaysis, LLC, priority 2015, published 2017).

How the values were obtained:
[1] = Pharmacokinetics of oral and intravenous baclofen at clinically relevant doses, dose escalation crossover study (Example 4); format: in vivo, human; details: for Cmax / half-life / bioavailability: human, plasma
Protocol: (§1) Thirty-six healthy adults participated in the study.
(§2) The thirty-six subjects were enrolled in a randomized, open-label, cross over study to evaluate the safety profile and pharmacokinetics of oral and an investigational intravenous baclofen formulation at clinically relevant doses. Three cohorts of twelve subjects received single doses of baclofen: 7.5, 11.5 or 15 mg intravenously and 10, 15, or 20 mg taken orally with a 48 hour washout phase. The highest dosing cohort received an additional 15 mg extended (60 minute) infusion. Blood samples for baclofen pharmacokinetic analysis were collected pre-dose and at regular intervals over a 24 hour time period. Over this 24 hour period subjects were assessed for sedation, nystagmus and ataxia to evaluate clinical response. Maximum concentration (Cmax) and time to maximum concentration (Tmax) were determined by visual inspection. Noncompartmental pharmacokinetic analyses were used to estimate area under the curve (AUC), half life (t1/2), clearance (CL) and volume of distribution. Absolute bioavailability was calculated using dose normalized oral and intravenous AUCs. Dose proportionality was assessed using analysis of variance (ANOVA) and a power model. Bioequivalence was evaluated using Phoenix Software (Centara, Pharsight Corporation, Mountain View, Calif.).

healthy human volunteers = experiment: Tolerability of the intravenous formulation in the crossover study (Example 3); format: in vivo
Protocol: (§3) Twelve healthy human volunteers were recruited. The volunteers were medication free for 48 hours before, during, and 24 hours after the administration of the study drug.
(§4) The 12 volunteers participated in a randomized, open-label, 2-way crossover study to compare the pharmacokinetics and bioavailability of oral baclofen with an intravenous baclofen formulation. The oral formulation was a 10 mg baclofen tablet. A single intravenous dose of 5 mg was administered over 15 minutes, using the commercially available 2 mg/mL intrathecal baclofen formulation (Lioresal Intrathecal). Blood samples (6 mL) for the measurement of plasma concentrations of baclofen were collected in blood collection tubes containing K2 ethylenediaminetetraacetic acid at the following times: prior to dosing; at 5, 15, and 30 minutes; and at 1, 2, 4, 6, 8, 10, 12, and 24 hours after drug administration.

[2] = Pharmacokinetics and bioavailability of oral vs intravenous baclofen, randomized open-label 2-way crossover study (Example 3); format: in vivo, human; details: for Cmax: single dose
Protocol: as §3, §4
Study plasma samples were prepared by adding 50 μL of a 500 μg/mL levetiracetam solution (internal standard) to 250 μL of K2 ethylenediaminetetraacetic acid (EDTA) human plasma. Baclofen and the internal standard were extracted from plasma by precipitating the protein with methanol and drying it under nitrogen at approximately 40° C. The dried residues were reconstituted in 300 μL of a mobile phase consisting of 20 mM ammonium acetate-methanol (75:25) solution. After 1 minute of vortex mixing, the reconstituted sample solution was filtered and injected onto the high-performance liquid chromatograph-mass spectrometer system. Standard curve samples over a range of 20 to 400 ng/mL baclofen and quality control samples containing 30 (low), 80 (medium), and 240 ng/mL (high) baclofen were prepared and analyzed in triplicate along with the study samples. The assay was linear over the range 20-400 ng/mL with a lower limit of quantification of 20 ng/mL.
Baclofen concentration-time data were analyzed using a noncompartmental pharmacokinetic approach with Phoenix software (version 6.2; Pharsight Corporation, Mountain View, Calif.). The terminal rate constant (λz) was determined from the slope of the terminal log-linear portion of the plasma concentration-time curve, and the terminal half-life (t1/2) was calculated as In 2/(λz). Maximum plasma concentrations (Cmax) and time to maximum concentration (Tmax) were determined by direct observation of the data. The area under the concentration-time curve to the last nonzero plasma concentration (Clast) that was above half the lower limit of quantification (10 ng/mL) was calculated by the trapezoidal rule and reported as AUClast The area under the concentration-time curve extrapolated to infinity (AUC0-∞) was calculated as AUClast+(Clast/λz). Mean and standard deviation values for the parameters were also obtained using the descriptive statistics tool in Phoenix version 6.2. A paired t-test was used to determine if statistical differences existed in log normalized, dose-adjusted area under the curve between oral and intravenous arms.

[3] = cited from earlier work
healthy adults = experiment: Tolerability/safety (sedation, nystagmus, ataxia) in the dose escalation study (Example 4); format: in vivo, human; details: for subjects with asymptomatic nystagmus: 10 minute infusion, of twelve subjects
Protocol: as §1, §2

[4] = iv, 7.5 mg, IV 10 min infusion 7.5 mg, mean
[5] = iv, 11.5 mg, IV 10 min infusion 11.5 mg, mean
[6] = iv, 15 mg, IV 10 min infusion 15 mg, mean
[7] = iv, 15 mg, IV 60 min infusion 15 mg, mean
[8] = human, plasma, 5 mg IV, mean ± SD
[9] = human, plasma, 10 mg oral, mean ± SD

With `NCC(CC(=O)O)c1ccc(Cl)cc1` (racemic) [Baclofen, 4-amino-3-(4-chlorophenyl) butanoic acid] the Cmax ration ([1]; 15 mg intravenous infusion over 10 minutes vs oral) was 263%, the Cmax ration ([1]; 15 mg intravenous infusion over 60 minutes vs oral) was 149% and the “dose proportionality of AUC” value ([1]; ANOVA and power model analysis) was “greater than proportional increase with dose”. The “AUC(0-inf)” value ([1]; IV 10 min infusion 7.5 mg, mean) was 562 ng·h/mL, the “AUC(0-inf)” value ([1]; IV 10 min infusion 11.5 mg, mean) was 1186 ng·h/mL and the “AUC(0-inf)” value ([1]; IV 10 min infusion 15 mg, mean) was 1520 ng·h/mL. The “AUC(0-inf)” value ([1]; IV 60 min infusion 15 mg, mean) was 1447 ng·h/mL, the “AUC(0-inf)” value ([1]; PO 10 mg, mean) was 714 ng·h/mL and the “AUC(0-inf)” value ([1]; PO 15 mg, mean) was 1201 ng·h/mL. The “AUC(0-inf)” value ([1]; PO 20 mg, mean) was 1598 ng·h/mL, the “bioequivalence of oral and intravenous doses” value ([1]; based on AUC and Cmax) was “bioequivalent based on AUC, but not based on Cmax” and the “dose proportionality of mean Cmax” value ([1]; both forms of administration, ANOVA and power model) was “increased proportionally with dose”. It also gave a Cmax [1, 4] of 310 ng/mL, a half-life [1, 4] of 3.37 h and a Cmax [1, 5] of 524 ng/mL. It also gave a half-life [1, 5] of 4.97 h, a Cmax [1, 6] of 720 ng/mL and a half-life [1, 6] of 5.82 h. The Cmax [1, 7] was 382 ng/mL, the half-life [1, 7] was 6.22 h and the bioavailability ([1]; oral, data from all cohorts combined, read-out: mean bioavailability) was 89%. It also gave a Cmax ([1]; po, 10 mg, PO 10 mg, mean) of 124 ng/mL, a half-life ([1]; po, 10 mg, PO 10 mg, mean) of 3.94 h and a Cmax ([1]; po, 15 mg, PO 15 mg, mean) of 201 ng/mL. For the same compound, the half-life ([1]; po, 15 mg, PO 15 mg, mean) was 4.65 h, the Cmax ([1]; po, 20 mg, PO 20 mg, mean) was 255 ng/mL and the half-life ([1]; po, 20 mg, PO 20 mg, mean) was 5.49 h. The bioavailability ([1]; po, data from all cohorts combined, read-out: absolute oral bioavailability, range) was 42 to 132%, the bioavailability ([1]; PO 10 mg (cohort 1), mean, read-out: Bioavailability) was 102% and the bioavailability ([1]; PO 15 mg (cohort 2), mean, read-out: Bioavailability) was 80%. For the same compound, the bioavailability ([1]; PO 20 mg (cohort 3), mean, read-out: Bioavailability) was 85%, the “tolerability of the intravenous formulation” value (healthy human volunteers; 5 mg IV over 15 minutes) was “well tolerated” and the “severity of treatment-emergent adverse events” value (healthy human volunteers; characterized by the investigator) was “mild in severity”. For the same compound, the “time for all subjects to return to baseline values after drug administration” value (healthy human volunteers; in vivo) was ≤ 6 h, the “time point of observed maximum baclofen concentration” value ([2]; 5 mg IV formulation) was 5 min and the “AUC0-∞/Dose” value ([2]; 5 mg IV, mean ± SD) was 141 ± 33 ng·h/mL/mg. For the same compound, the “AUC0-∞/Dose” value ([2]; 10 mg oral, mean ± SD) was 102 ± 23 ng·h/mL/mg, the T1/2 ([2]; 10 mg oral, mean ± SD) was 4.03 ± 0.73 h and the half-life ([2]; human, plasma, iv, 5 mg, 5 mg IV, mean ± SD) was 4.52 h. The bioavailability ([2]; human, plasma, oral, 10 mg, 10 mg oral tablet, absolute, vs 5 mg IV, mean ± SD) was 74%, the half-life ([2]; human, plasma, po, 10 mg, 10 mg oral, mean ± SD) was 4 h and the AUC(0-inf) [2, 8] was 707 ± 166 ng·h/mL. It also gave an AUC(0-t) [2, 8] of 593 ± 111 ng·h/mL, an AUC(0-inf) [2, 9] of 1020 ± 232 ng·h/mL and an AUC(0-t) [2, 9] of 878 ± 199 ng·h/mL. The Tmax ([2]; human, plasma, 10 mg oral, median (min, max)) was 1 h, the Cmax ([2]; human, 5 mg IV over 15 minutes, plasma, mean ± SD, 12 volunteers) was 310 ng/mL and the Cmax ([2]; human, 10 mg oral tablet, plasma, mean ± SD) was 174 ng/mL. The solubility in water [3] was “slightly soluble in water”, the “subjects with asymptomatic nystagmus” value (healthy adults; 7.5 mg) was “two” and the “subjects with asymptomatic nystagmus” value (healthy adults; 11.5 mg) was “six”. The occurrence of nystagmus (healthy adults; 15 mg 60 minute infusion) was “not observed”, the “subjects with asymptomatic nystagmus” value (healthy adults; 15 mg) was “six” and the ataxia (healthy adults; after the 20 mg oral dose) was “one subject experienced mild transient ataxia”. For the same compound, the tolerability (healthy adults; all oral and IV doses) was “generally well tolerated”, the “sedation, changes from baseline” value (healthy adults; by route of administration or by dose) was “not statistically significant” and the adverse effects (healthy adults; following both oral and intravenous doses) was “Mild, self-limited adverse effects”.
